Where two headings read alike, the source gives them in different places.
Assays:
[1] = test system: H3K27me3 mark in HeLa cells (EZH2); experiment: H3K27me3 Alpha Hela Assay (AlphaLISA); type: cell-based; details: Homo sapiens, HeLa
Method in brief: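 HeLa cells (1,000/well) treated with ten 3-fold compound doses for 72 h at 37 °C; lysates extracted and H3K27me3 detected by AlphaLISA with anti-K27me3 acceptor beads, biotinylated anti-H3 (3 nM) and streptavidin donor beads. EC50 from DMSO-normalized dose-response curves; duplicate plate assessed viability.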

PRC2 containing wt EZH2 [2] = molecular target: T1, PRC2 containing wt EZH2 (Homo sapiens (Human), UniProt Q15910); experiment: EZH2 residence time assay (100-fold dilution of pre-formed enzyme-inhibitor complex); type: biochemical
Procedure: EZH2 residence time assay: Compound residence times were assessed by monitoring the recovery of enzyme activity following a 100-fold dilution of pre-formed enzyme-inhibitor complex (dilution reaction), and comparing it to the activity of an undiluted control with the same final concentrations of all reagents (control reaction). Enzyme activity was measured by incorporation of ^3H-SAM into a biotinylated H3 peptide. […] For the control reaction, 0.202 nM PRC2 was pre-incubated with 1 μM activating peptide, 1.01 μM SAM, 1.01 μM ^3H-SAM, and compound at 6.06 times its Ki for 2 h in 138.6 μL of buffer, then the reaction was initiated by the addition of 1.4 μL 500 μM substrate peptide in water. Reactions were quenched at various time points spanning up to 10 hours, by transferring 8 μL aliquots from the reaction vessel to a plate containing 8 μL per well of STOP solution (50 mM Tris pH 8.5, 200 mM EDTA, 2 mM SAH). After the last time point, 12 μL of the quenched solutions were transferred to a streptavidin coated FlashPlate (PerkinElmer) containing 40 μL per well of STOP solution, incubated 1-8 h, washed, and read in a TopCount plate reader (PerkinElmer). A custom script was used to fit control reaction progress data to a straight line and dilution reaction progress data:
Where y is the product formed, t is the reaction time, vi is the initial velocity, vs is the steady state velocity, and kobs is the rate constant for the transition from the initial velocity phase of the curve to the steady state velocity phase of the curve. In fitting the dilution reaction progress data, vs was constrained to the slope of the line fitted to the control reaction progress data. The fitted value of kobs was then transformed into residence time:
Where τ is residence time, Ki is the inhibition constant, [EI] is the calculated equilibrium concentration of enzyme-inhibitor complex, [E] is the calculated equilibrium concentration of free enzyme, and [I] is the calculated equilibrium concentration of free inhibitor.

PRC2 containing wt EZH2 [3] = molecular target: T1, PRC2 containing wt EZH2; experiment: EZH2 biochemical assay (IC50), 3H-SAM incorporation into biotinylated H3 peptide; details: 30 pM PRC2 containing wt EZH2, 3-5 h pre-incubation
Method in brief: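 The PRC2 pentamer with wt EZH2 (30 pM) was pre-incubated for 3-5 h with 450 nM SAM plus 450 nM ³H-SAM, 2 µM H3K27me3 activating peptide and compound (0.8% DMSO) in Tris at pH 8.5. Biotinylated H3K27me1 peptide was added and the reaction ran 18-22 h at RT. Incorporated ³H was captured on streptavidin plates, and IC50 was taken from a four-parameter fit.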

[4] = HeLa cell assay, Table 3 classes, read-out: EC50 Cellular Activity
[5] = 72 h, HeLa cells, 72 hrs, read-out: EZH2 Cell H3K27me3 Alpha HeLa (EC50 K27me3)

T1 sequence (Q15910 whole entry): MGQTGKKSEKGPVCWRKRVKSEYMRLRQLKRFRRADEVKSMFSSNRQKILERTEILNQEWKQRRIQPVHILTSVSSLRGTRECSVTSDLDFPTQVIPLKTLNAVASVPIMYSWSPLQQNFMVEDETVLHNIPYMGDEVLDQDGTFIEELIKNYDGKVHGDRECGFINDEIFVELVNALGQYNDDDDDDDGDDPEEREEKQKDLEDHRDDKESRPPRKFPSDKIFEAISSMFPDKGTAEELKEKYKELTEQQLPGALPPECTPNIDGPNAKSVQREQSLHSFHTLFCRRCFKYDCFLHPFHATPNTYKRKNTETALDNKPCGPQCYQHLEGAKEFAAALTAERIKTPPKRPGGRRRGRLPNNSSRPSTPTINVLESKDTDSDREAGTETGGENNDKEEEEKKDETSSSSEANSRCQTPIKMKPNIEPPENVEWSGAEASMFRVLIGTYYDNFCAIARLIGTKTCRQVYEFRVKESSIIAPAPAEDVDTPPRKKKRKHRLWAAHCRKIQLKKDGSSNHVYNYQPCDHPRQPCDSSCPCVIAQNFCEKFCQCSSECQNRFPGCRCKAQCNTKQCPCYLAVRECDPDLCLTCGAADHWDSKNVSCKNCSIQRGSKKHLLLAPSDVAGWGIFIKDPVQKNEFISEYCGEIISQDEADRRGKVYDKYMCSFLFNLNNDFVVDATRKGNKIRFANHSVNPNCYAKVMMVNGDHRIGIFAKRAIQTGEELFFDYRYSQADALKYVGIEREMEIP
T1 sequence (O75530 whole entry partner): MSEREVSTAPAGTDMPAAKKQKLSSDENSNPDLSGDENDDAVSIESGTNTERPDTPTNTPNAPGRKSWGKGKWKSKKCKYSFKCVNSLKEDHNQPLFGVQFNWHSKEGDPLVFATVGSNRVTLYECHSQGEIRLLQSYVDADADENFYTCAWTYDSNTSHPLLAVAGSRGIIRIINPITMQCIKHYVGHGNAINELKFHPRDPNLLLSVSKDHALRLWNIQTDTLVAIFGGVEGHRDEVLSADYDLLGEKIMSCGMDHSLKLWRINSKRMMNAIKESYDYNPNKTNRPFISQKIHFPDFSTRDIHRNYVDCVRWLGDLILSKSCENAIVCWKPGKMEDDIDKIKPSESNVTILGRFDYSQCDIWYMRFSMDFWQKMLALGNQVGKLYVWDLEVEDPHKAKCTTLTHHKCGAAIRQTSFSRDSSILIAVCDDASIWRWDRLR
T1 sequence (Q15022 whole entry partner): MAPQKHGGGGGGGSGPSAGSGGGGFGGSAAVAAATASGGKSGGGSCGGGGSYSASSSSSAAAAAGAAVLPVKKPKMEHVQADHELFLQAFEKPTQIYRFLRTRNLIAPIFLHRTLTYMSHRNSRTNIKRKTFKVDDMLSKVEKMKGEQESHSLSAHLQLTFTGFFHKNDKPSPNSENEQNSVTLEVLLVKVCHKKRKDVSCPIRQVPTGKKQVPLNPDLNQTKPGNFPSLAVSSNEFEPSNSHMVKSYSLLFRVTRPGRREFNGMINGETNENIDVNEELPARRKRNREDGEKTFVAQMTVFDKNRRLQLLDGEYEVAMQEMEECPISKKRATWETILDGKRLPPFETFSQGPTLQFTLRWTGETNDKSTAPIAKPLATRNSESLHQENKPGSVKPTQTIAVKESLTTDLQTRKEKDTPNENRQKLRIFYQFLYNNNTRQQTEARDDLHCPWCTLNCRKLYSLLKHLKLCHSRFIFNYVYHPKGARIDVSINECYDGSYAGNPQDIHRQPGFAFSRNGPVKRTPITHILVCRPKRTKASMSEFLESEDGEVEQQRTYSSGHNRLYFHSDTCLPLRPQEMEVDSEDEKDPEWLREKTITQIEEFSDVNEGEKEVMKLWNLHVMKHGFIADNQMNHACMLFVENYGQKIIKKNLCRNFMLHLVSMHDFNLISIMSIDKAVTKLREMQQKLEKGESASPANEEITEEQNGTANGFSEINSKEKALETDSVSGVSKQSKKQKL
T1 sequence (Q09028 whole entry partner): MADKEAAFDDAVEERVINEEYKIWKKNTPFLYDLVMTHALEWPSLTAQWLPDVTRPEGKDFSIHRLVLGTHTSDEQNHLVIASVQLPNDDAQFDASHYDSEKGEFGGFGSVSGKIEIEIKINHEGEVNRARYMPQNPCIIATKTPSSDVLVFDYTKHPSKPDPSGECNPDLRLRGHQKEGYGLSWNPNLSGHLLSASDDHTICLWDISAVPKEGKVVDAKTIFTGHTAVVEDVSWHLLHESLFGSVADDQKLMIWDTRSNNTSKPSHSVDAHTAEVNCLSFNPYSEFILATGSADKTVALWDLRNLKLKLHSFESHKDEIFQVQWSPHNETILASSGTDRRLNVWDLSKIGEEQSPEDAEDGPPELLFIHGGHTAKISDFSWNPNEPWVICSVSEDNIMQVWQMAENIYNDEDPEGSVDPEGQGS
T1 sequence (Q6ZN18 whole entry partner): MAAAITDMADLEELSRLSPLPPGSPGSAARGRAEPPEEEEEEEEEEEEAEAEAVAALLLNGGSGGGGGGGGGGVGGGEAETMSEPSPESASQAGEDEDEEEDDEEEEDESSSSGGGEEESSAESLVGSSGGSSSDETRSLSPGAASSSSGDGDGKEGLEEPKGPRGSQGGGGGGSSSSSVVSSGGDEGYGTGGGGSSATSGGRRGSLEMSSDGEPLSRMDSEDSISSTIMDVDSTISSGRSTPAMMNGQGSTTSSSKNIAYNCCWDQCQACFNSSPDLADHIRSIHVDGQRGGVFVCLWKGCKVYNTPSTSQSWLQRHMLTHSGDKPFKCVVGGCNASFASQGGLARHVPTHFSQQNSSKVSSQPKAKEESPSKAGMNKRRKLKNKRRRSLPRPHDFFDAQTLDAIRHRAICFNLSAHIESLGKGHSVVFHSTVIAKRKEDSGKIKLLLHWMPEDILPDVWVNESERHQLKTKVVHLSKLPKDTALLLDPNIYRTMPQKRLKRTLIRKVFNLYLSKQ

Compound | IC50 (PRC2 containing wt EZH2 [3]; read-out: EZH2 (IC50)) [nM] | EC50 [1, 5] [nM] | also measured
Cc1cc(C)c(CNC(=O)c2c(C)n([C@H](C)C34CC(NC5COC5)(C3)C4)c3ccccc23)c(=O)[nH]1 | – | – | EC50 [1, 4]: 25 to 125 nM; residence time (PRC2 containing wt EZH2 [2]; read-out: Residence Time): < 30 min
Cc1cc(C)c(CNC(=O)c2c(C)n([C@H](C)C34CC(N(C)CC(F)(F)F)(C3)C4)c3ccccc23)c(=O)[nH]1 | – | – | EC50 [1, 4]: > 125 nM; residence time (PRC2 containing wt EZH2 [2]; read-out: Residence Time): < 30 min
COc1cc(C)[nH]c(=O)c1CNC(=O)c1c(C)n([C@H](C)C23CC(N(C)CC(F)(F)F)(C2)C3)c2ccccc12 | – | – | EC50 [1, 4]: 25 to 125 nM; residence time (PRC2 containing wt EZH2 [2]; read-out: Residence Time): 30 to 300 min
Cc1cc(C)c(CNC(=O)c2c(C)n([C@H](C)C3CCN(CC(C)(C)O)CC3)c3ccccc23)c(=O)[nH]1 | – | – | EC50 [1, 4]: > 125 nM; residence time (PRC2 containing wt EZH2 [2]): < 30 min
CSc1cc(C)[nH]c(=O)c1CNC(=O)c1c(C)n([C@H](C)C2CCC(N3CC(OC4CC4)C3)CC2)c2ncccc12 (some centres unmarked) | – | – | EC50 [1, 4]: < 5 nM; residence time (PRC2 containing wt EZH2 [2]; read-out: Residence Time): 300 to 2100 min
CSc1cc(C)[nH]c(=O)c1CNC(=O)c1c(C)n([C@H](C)C2CCC(NC3(C(F)(F)F)COC3)CC2)c2ccccc12 (some centres unmarked) | – | – | EC50 [1, 4]: < 5 nM; residence time (PRC2 containing wt EZH2 [2]): 300 to 2100 min
CSc1cc(C)[nH]c(=O)c1CNC(=O)c1c(C)n([C@H](C)C2CCC(N3CC(OC(C)(C)C)C3)CC2)c2ncc(Cl)cc12 (stereo partly drawn) [Example 129, 1-((R)-1-(4-(3-(tert-butoxy)azetidin-1-yl)cyclohexyl)ethyl)-5-chloro-2-methyl-N-((6-methyl-4-(methylthio)-2-oxo-1,2-dihydropyridin-3-yl)methyl)-1H-pyrrolo[2,3-b]pyridine-3-carboxamide] | < 0.5 | < 10 | –
CSc1cc(C)[nH]c(=O)c1CNC(=O)c1c(C)n([C@H](C)C2CCN(C3(C)CC3)CC2)c2ncccc12 [Example 131, (R)-2-methyl-N-((6-methyl-4-(methylthio)-2-oxo-1,2-dihydropyridin-3-yl)methyl)-1-(1-(1-(1-methylcyclopropyl)piperidin-4-yl)ethyl)-1H-pyrrolo[2,3-b]pyridine-3-carboxamide] | – | < 10 | IC50 (PRC2 containing wt EZH2 [3]; EZH2 (IC50)): < 0.5 nM
CSc1cc(C)[nH]c(=O)c1CNC(=O)c1c(C)n([C@H](C)C2CCC(OC3CC3)CC2)c2ccccc12 (stereo partly drawn) [Example 132, 1-((R)-1-(4-cyclopropoxycyclohexyl)ethyl)-2-methyl-N-((6-methyl-4-(methylthio)-2-oxo-1,2-dihydropyridin-3-yl)methyl)-1H-indole-3-carboxamide] | – | < 10 | IC50 (PRC2 containing wt EZH2 [3]; EZH2 (IC50)): < 0.5 nM
CSc1cc(C)[nH]c(=O)c1CNC(=O)c1c(C)n([C@H](C)C2CCN(C3COC3)CC2)c2ccccc12 [Example 133, (R)-2-methyl-N-((6-methyl-4-(methylthio)-2-oxo-1,2-dihydropyridin-3-yl)methyl)-1-(1-(1-(oxetan-3-yl)piperidin-4-yl)ethyl)-1H-indole-3-carboxamide] | – | < 10 | IC50 (PRC2 containing wt EZH2 [3]; EZH2 (IC50)): < 0.5 nM
CSc1cc(C)[nH]c(=O)c1CNC(=O)c1c(C)n([C@H](C)C2CCN(C(=O)CO)CC2)c2ccccc12 [Example 135, (R)-1-(1-(1-(2-hydroxyacetyl)piperidin-4-yl)ethyl)-2-methyl-N-((6-methyl-4-(methylthio)-2-oxo-1,2-dihydropyridin-3-yl)methyl)-1H-indole-3-carboxamide] | < 0.5 | > 100 | –
CSc1cc(C)[nH]c(=O)c1CNC(=O)c1c(C)n([C@H](C)C2CCC(N3CC(O)C3)CC2)c2ccccc12 (stereo partly drawn) [Example 136, (R)-1-(1-(4-(3-hydroxyazetidin-1-yl)cyclohexyl)ethyl)-2-methyl-N-((6-methyl-4-(methylthio)-2-oxo-1,2-dihydropyridin-3-yl)methyl)-1H-indole-3-carboxamide] | – | > 100 | IC50 (PRC2 containing wt EZH2 [3]; EZH2 (IC50)): < 0.5 nM
COC1CC(N2CCC([C@@H](C)n3c(C)c(C(=O)NCc4c(SC)cc(C)[nH]c4=O)c4ccccc43)CC2)C1 (stereo partly drawn) [Example 140, (R)-1-(1-(1-(3-methoxycyclobutyl)piperidin-4-yl)ethyl)-2-methyl-N-((6-methyl-4-(methylthio)-2-oxo-1,2-dihydropyridin-3-yl)methyl)-1H-indole-3-carboxamide] | – | 10 to 100 | IC50 (PRC2 containing wt EZH2 [3]; EZH2 (IC50)): < 0.5 nM
COC1CC(N2CCC([C@@H](C)n3c(C)c(C(=O)NCc4c(SC)cc(C)[nH]c4=O)c4cccnc43)CC2)C1 (stereo partly drawn) [Example 141, (R)-1-(1-(1-(3-methoxycyclobutyl)piperidin-4-yl)ethyl)-2-methyl-N-((6-methyl-4-(methylthio)-2-oxo-1,2-dihydropyridin-3-yl)methyl)-1H-pyrrolo[2,3-b]pyridine-3-carboxamide] | – | 10 to 100 | IC50 (PRC2 containing wt EZH2 [3]; EZH2 (IC50)): < 0.5 nM
CSc1cc(C)[nH]c(=O)c1CNC(=O)c1c(C)n([C@H](C)C2CCN(C(=O)CN(C)C)CC2)c2ccccc12 [Example 142, (R)-1-(1-(1-(dimethylglycyl)piperidin-4-yl)ethyl)-2-methyl-N-((6-methyl-4-(methylthio)-2-oxo-1,2-dihydropyridin-3-yl)methyl)-1H-indole-3-carboxamide] | < 0.5 | > 100 | –
CCS(=O)(=O)N1CCC([C@@H](C)n2c(C)c(C(=O)NCc3c(SC)cc(C)[nH]c3=O)c3ccccc32)CC1 [Example 146, (R)-1-(1-(1-(ethylsulfonyl)piperidin-4-yl)ethyl)-2-methyl-N-((6-methyl-4-(methylthio)-2-oxo-1,2-dihydropyridin-3-yl)methyl)-1H-indole-3-carboxamide] | < 0.5 | < 10 | –
COC1CC(N2CC[C@H]([C@@H](C)n3c(C)c(C(=O)NCc4c(SC)cc(C)[nH]c4=O)c4ccccc43)[C@@H](F)C2)C1 (stereo partly drawn) [Example 152, 1-((R)-1-((3R,4R)-3-fluoro-1-(3-methoxycyclobutyl)piperidin-4-yl)ethyl)-2-methyl-N-((6-methyl-4-(methylthio)-2-oxo-1,2-dihydropyridin-3-yl)methyl)-1H-indole-3-carboxamide] | < 0.5 | < 10 | –
COC1CC(N2CC[C@H]([C@@H](C)n3c(C)c(C(=O)NCc4c(SC)cc(C)[nH]c4=O)c4ccccc43)[C@H](F)C2)C1 (stereo partly drawn) [Example 153, 1-((R)-1-((3S,4R)-3-fluoro-1-(3-methoxycyclobutyl)piperidin-4-yl)ethyl)-2-methyl-N-((6-methyl-4-(methylthio)-2-oxo-1,2-dihydropyridin-3-yl)methyl)-1H-indole-3-carboxamide] | < 0.5 | < 10 | –
CSc1cc(C)[nH]c(=O)c1CNC(=O)c1c(C)n([C@H](C)C2CCC(N3CC(F)(C4CC4)C3)CC2)c2ncccc12 (stereo partly drawn) [Example 157, 1-((R)-1-(4-(3-cyclopropyl-3-fluoroazetidin-1-yl)cyclohexyl)ethyl)-2-methyl-N-((6-methyl-4-(methylthio)-2-oxo-1,2-dihydropyridin-3-yl)methyl)-1H-pyrrolo[2,3-b]pyridine-3-carboxamide] | < 0.5 | 10 to 100 | –
CSc1cc(C)[nH]c(=O)c1CNC(=O)c1c(C)n([C@H](C)C2CCC(N3CC(O)(C(C)C)C3)CC2)c2ncccc12 (stereo partly drawn) [Example 158, 1-((R)-1-(4-(3-hydroxy-3-isopropylazetidin-1-yl)cyclohexyl)ethyl)-2-methyl-N-((6-methyl-4-(methylthio)-2-oxo-1,2-dihydropyridin-3-yl)methyl)-1H-pyrrolo[2,3-b]pyridine-3-carboxamide] | < 0.5 | > 100 | –
CSc1cc(C)[nH]c(=O)c1CNC(=O)c1c(C)n([C@H](C)C2CCC(N3CC(n4ccnn4)C3)CC2)c2ccccc12 (stereo partly drawn) [Example 160, 1-((R)-1-(4-(3-(1H-1,2,3-triazol-1-yl)azetidin-1-yl)cyclohexyl)ethyl)-2-methyl-N-((6-methyl-4-(methylthio)-2-oxo-1,2-dihydropyridin-3-yl)methyl)-1H-indole-3-carboxamide] | < 0.5 | < 10 | –
CSc1cc(C)[nH]c(=O)c1CNC(=O)c1c(C)n([C@H](C)C2CCC(NC3(C(F)(F)F)CC3)CC2)c2ncccc12 (stereo partly drawn) [Example 161, 2-methyl-N-((6-methyl-4-(methylthio)-2-oxo-1,2-dihydropyridin-3-yl)methyl)-1-((R)-1-(4-((1-(trifluoromethyl)cyclopropyl)amino)cyclohexyl)ethyl)-1H-pyrrolo[2,3-b]pyridine-3-carboxamide] | < 0.5 | 10 to 100 | –

Reference: patent publication US11459315B2, “Modulators of methyl modifying enzymes, compositions and uses thereof” (Constellation Pharmaceuticals, Inc., priority 2017, dated 2022)
